In patent publication US20050221355A1, “cDNA for human methylenetetrahydrofolate reductase and uses thereof” (McGill University, priority 1994, published 2005):

How the values were obtained:
[1] = test system: colon carcinoma lines that carry the 677C/T mutation in MTHFR; experiment: Methotrexate added to colon carcinoma lines in culture (cell kill), lines with the MTHFR mutation; format: cell-based; conditions: colon carcinoma lines with the 677C/T MTHFR mutation; read-out: IC50 (concentration needed to kill half the cells)
Description: (§1) Various doses of methotrexate (a drug used in treatment of cancer and arthritis, possibly other diseases) were added to colon carcinoma lines in culture. […] To extrapolate to the human condition, patients with this MTHFR mutation might require lower doses of methotrexate for therapy, or might be subject to methotrexate toxicity at high doses.

[2] = test system: colon carcinoma lines that do not carry the 677C/T mutation in MTHFR; experiment: Methotrexate added to colon carcinoma lines in culture (cell kill), lines without the MTHFR mutation; format: cell-based; conditions: colon carcinoma lines without the 677C/T MTHFR mutation; read-out: IC50 (concentration needed to kill half the cells)
Description: as §1

human MTHFR = experiment: Enzymatic and thermolability assay of E. coli extracts expressing wild-type or mutagenized MTHFR cDNA; format: biochemical
Description: Overnight cultures of JM105™ containing vector alone, vector+wild-type MTHFR cDNA, or vector+mutagenized cDNA were grown at 370° C. in 2×YT media with 0.05 mg/ml ampicillin. Fresh 10 ml. cultures of each were inoculated with approximately 50 μL of overnight cultures for a starting O.D. of 0.05, and were grown at 370° C. to an O.D. of 1 at 420 nM. Cultures were then induced for 2 hrs. with 1 mM IPTG and pelleted. The cells were resuspended in TE buffer with 2 μg/ml aprotinin and 2 μg/ml leupeptin (3.5×wet weight of cells). Cell suspensions were sonicated on ice for 3×15 sec. to break open cell membranes and then centrifuged for 30 min. at 4° C. to pellet cell debris and unlysed cells. The supernatant was removed and assayed for protein concentration with the Bio-Rad™ protein assay. […] Enzymatic assays were performed by established procedures; pre-treating the extracts at 46° C. for 5 min. before determining activity assessed thermolability. Specific activities (nmol formaldehyde/hr./mg. protein) were calculated for the 2 cDNA-containing constructs after subtraction of the values obtained with vector alone (to subtract background E. Coli MTHFR activity).

| Compound | IC50 [1] | IC50 [2] | mean specific activity before heating (human MTHFR; Exp. 1, vector-alone value subtracted) | mean specific activity before heating (human MTHFR; Exp. 2, vector-alone value subtracted) |
| --- | --- | --- | --- | --- |
| CN(Cc1cnc2nc(N)nc(N)c2n1)c1ccc(C(=O)N[C@@H](CCC(=O)O)C(=O)O)cc1 [methotrexate] | ~20 nM | ~150 nM | – | – |
| MTHFR: recombinant human methylenetetrahydrofolate reductase, about 70 kDa, expressed in E. coli from the wild-type 2.2 kb cDNA | – | – | 3.8 nmol formaldehyde/hr./mg. protein | 6.2 nmol formaldehyde/hr./mg. protein |
